Source: patent US20210171904A1, “CELL CULTURE METHOD AND CELL CULTURE APPARATUS” (NIKKISO CO., LTD., priority 2018, published 2021)

Columns and labels:
[1] = tested on: human pluripotent stem cells; test: Cell density of human pluripotent stem cells after 5 days culture in waste-added medium (cell counter); type: cell-based; conditions: ammonium chloride added
Procedure: (§1) Onto a 24-well plate (Corning cellBIND Surface: from Corning Incorporated), seeded were 1×10^3 human pluripotent stem cells, to which a medium for pluripotent stem cell (StemFit: from Ajinomoto Co. Inc.) was added, and then cultured. To the medium before 24 hours from the start of culture, a culture substrate (iMatrix-511; from Nippi, Inc.) was added so as to adjust the concentration to 0.5 μg/ml, and also ROCK inhibitor (Y-27632: from FUJIFILM Wako Pure Chemical Corporation) was added so as to adjust the concentration to 10 μM.
After the elapse of 5 days, the number of cells in each well was measured by using TC20 full-automatic cell counter (from Bio-Rad Laboratories, Inc.), to calculate cell density. Results are illustrated in FIG. 5.
Onto a 24-well plate (Corning cellBIND Surface: from Corning Incorporated), seeded were 1×10^3 human pluripotent stem cells, to which a medium for pluripotent stem cell (StemFit: from Ajinomoto Co. Inc.) was added, and then cultured. […]
After the elapse of 5 days, the number of cells in each well was measured by using TC20 full-automatic cell counter (from Bio-Rad Laboratories, Inc.), to calculate cell density. […]

[2] = tested on: human pluripotent stem cells; test: Optical microscope observation of cells on the 5th day of culture in waste-added medium; type: cell-based
Procedure: as §1
The individual cells on the 5th day of culture were observed under an optical microscope. FIG. 6 presents optical microphotographs of the cells cultured in the lactic acid-added medium.
as §1, with “μM. […]” for “μM.”

[3] = tested on: human pluripotent stem cells; test: Real-time PCR of undifferentiation/differentiation marker gene expression (Oct4, Nanog, T, Pax6, Fox2) on the 6th day of culture; type: cell-based; conditions: ammonia 2.5 mM
Procedure: mRNA was then extracted from each cell on the 6th day of culture, using RNeasy Mini Kit (from QIAGEN N.V.), and then purified. Next, cDNA was synthesized from the thus purified mRNA, by using QuantiTect Reverse Transcription Kit (from QIAGEN N.V.). By using each cDNA as a template, and by using Thermal Cycler Dice Real Time System I (from Takara Bio Inc.), expression levels of Oct4, Nanog, T, Pax6 and Fox2 genes were measured by real-time PCR.
Proportion of expression levels of the individual genes at the individual concentration levels of ammonia were calculated, on the basis of the expression level at an ammonia concentration of 0 mM. FIG. 10 is a chart summarizing relation between the ammonia concentration and the gene expression levels. […] This confirms that keeping of the ammonia concentration at lower than 2.5 mM is effective to keep the cell in the undifferentiated state. It was also confirmed that the ammonia-induced promotion of cell differentiation may be suppressed more reliably, by keeping the ammonia concentration at 1 mM or below.

[4] = pH of medium after addition of lactic acid (pH-uncorrected group); type: physicochemical

pH of the medium ([4]; lactic acid concentration 5.0 mM)	pH of the medium ([4]; lactic acid concentration 7.5 mM)	pH of the medium ([4]; lactic acid concentration 10 mM)	pH of the medium ([4]; lactic acid concentration 15 mM)	Compound	ammonia concentration at which cell density sharply decreases [1] [mM]	ammonia concentration at which morphological changes of the cell were observed [2] [mM]	expression level of Pax6 gene (ectoderm differentiation marker) relative to level at 0 mM [3]	expression level of T gene (mesoderm differentiation marker) relative to level at 0 mM [3]
–	–	–	–	N [ammonia]	≥ 10.0	≥ 2.5	nearly ten times	nearly ten times
6.9	6.8	6.7	6.5	CC(O)C(=O)O (centres unmarked) [lactic acid]	–	–	–	–
